Reference: ChEMBL document CHEMBL4011601, “Synthesis and molecular docking studies of new furochromone derivatives as p38α MAPK inhibitors targeting human breast cancer MCF-7 cells” (Bioorg Med Chem, 2017)

Assays:
MCF7 [1] = assay: Antiproliferative activity against human MCF7 cells after 3 days by MTT assay; format: functional, cell-based; conditions: MCF7, 72 h
MAP kinase p38 = MAP kinase p38 (Homo sapiens, UniProt O15264+Q15759+Q16539+P53778); assay: Inhibition of p38 MAPK (unknown origin) using ATF2 as substrate measured after 15 by ELISA
MCF7 [2] = assay: Potency index, ratio of Doxorubicin IC50 to compound IC50 against human MCF7 cells; format: functional
MCF7 [3] = assay: Induction of apoptosis in human MCF7 cells assessed as viable cells after 24 hrs by Annexin-V/propidium iodide staining based FACS analysis (reference value: 92.7%); format: functional
MCF7 [4] = assay: Induction of apoptosis in human MCF7 cells assessed as early apoptotic cells after 24 hrs by Annexin-V/propidium iodide staining based FACS analysis (reference value: 2.7%); format: functional
MCF7 [5] = assay: Induction of apoptosis in human MCF7 cells assessed as late apoptotic cells after 24 hrs by Annexin-V/propidium iodide staining based FACS analysis (reference value: 4.3%); format: functional
MCF7 [6] = assay: Induction of apoptosis in human MCF7 cells assessed as necrotic cells after 24 hrs by Annexin-V/propidium iodide staining based FACS analysis (reference value: 0.3%); format: functional
MCF7 [7] = assay: Cell cycle arrest in human MCF7 cells assessed as accumulation at G1 phase after 24 hrs by propidium iodide staining-based flow cytometric method (reference value: 67.2%); format: functional
MCF7 [8] = assay: Cell cycle arrest in human MCF7 cells assessed as accumulation at G2 phase after 24 hrs by propidium iodide staining-based flow cytometric method (reference value: 6.4%); format: functional
MCF7 [9] = assay: Cell cycle arrest in human MCF7 cells assessed as accumulation at S phase after 24 hrs by propidium iodide staining-based flow cytometric method (reference value: 25.1%); format: functional
MCF7 [10] = assay: Induction of apoptosis in human MCF7 cells assessed as increase in caspase9 level at 0.007 uM after 24 hrs by ELISA; format: functional
MCF7 [11] = assay: Induction of apoptosis in human MCF7 cells assessed as increase in caspase3 level at 0.007 uM after 24 hrs by ELISA; format: functional

Compound	IC50 (MCF7 [1]) [nM]	IC50 (MAP kinase p38) [nM]	also measured
COc1ccc(-c2cc(-c3c(C)oc4c(OC)c5occc5c(OC)c4c3=O)[nH]c(=N)c2C#N)cc1OC	10	310	
COc1c2occc2c(OC)c2c(=O)c(C3=NN(c4ccccc4)C(c4ccc(F)cc4)C3)c(C)oc12 (centres undefined)	40	1090	
COc1ccc(-c2cc(-c3c(C)oc4c(OC)c5occc5c(OC)c4c3=O)nc(=S)[nH]2)cc1OC	50	1390	
COc1ccc(-c2cc(-c3c(C)oc4cc5occc5c(OC)c4c3=O)[nH]c(=N)c2C#N)cc1OC	50	720	
COc1ccc(-c2cc(-c3c(C)oc4c(OC)c5occc5c(OC)c4c3=O)nc(=O)[nH]2)cc1OC	80		
COc1c2occc2c(OC)c2c(=O)c(C3=NN(C(C)=O)C(c4ccc(F)cc4)C3)c(C)oc12 (centres undefined)	150		
COc1c2occc2c(OC)c2c(=O)c(C3=CC(c4ccc(F)cc4)=C4C(N)=NC=NC4N3)c(C)oc12 (centres undefined)	170		Ratio IC50 (MCF7 [2]): 3.6
COc1ccc(-c2cc(-c3c(C)oc4cc5occc5c(OC)c4c3=O)[nH]c(=O)c2C#N)cc1OC	140		
COc1c2occc2c(OC)c2c(=O)c(C3=CC(c4ccc(F)cc4)NO3)c(C)oc12 (centres undefined)	40	860	
COc1c2occc2c(OC)c2c(=O)c(-c3cc(-c4ccc(F)cc4)c(C#N)c(=N)[nH]3)c(C)oc12	20	630	
COc1c2occc2c(OC)c2c(=O)c(-c3cc(-c4ccc(F)cc4)[nH]c(=S)n3)c(C)oc12	20	380	
COc1c2ccoc2cc2oc(C)c(-c3cc(-c4ccc(F)cc4)c(C#N)c(=N)[nH]3)c(=O)c12	40	190	
COc1c2occc2c(OC)c2c(=O)c(-c3cc(-c4ccc(F)cc4)c(C#N)c(=O)[nH]3)c(C)oc12	100		Ratio IC50 (MCF7 [2]): 6
COc1ccc(C2CC(c3c(C)oc4c(OC)c5occc5c(OC)c4c3=O)=NN2C(C)=O)cc1OC (centres undefined)	7	670	Activity (MCF7 [3]): 64.1%; Activity (MCF7 [4]): 17.4%; Activity (MCF7 [5]): 15.2%; Activity (MCF7 [6]): 3.3%; Activity (MCF7 [7]): 31.2%; Activity (MCF7 [8]): 21.2%; Activity (MCF7 [9]): 24.3%; Activity (MCF7 [10]): 16.39 ng/mL; Activity (MCF7 [11]): 446.6 ng/mL
COc1c2occc2c(OC)c2c(=O)c(-c3cc(-c4ccc(F)cc4)[nH]c(=O)n3)c(C)oc12	80		
COc1c2ccoc2cc2oc(C)c(-c3cc(-c4ccc(F)cc4)c(C#N)c(=O)[nH]3)c(=O)c12	30	230	
COc1ccc(C2C=C(c3c(C)oc4c(OC)c5occc5c(OC)c4c3=O)ON2)cc1OC (centres undefined)	50	1090	
